Experimental data published in PubChem BioAssay (NCI).
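Where inhibition never reached the appropriate level, the endpoint shown equals the highest concentration tested. Otherwise, values were interpolated linearly from a five-concentration, 48-hour dose response in 96-well plates. TGI is the concentration that stops growth completely.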

Columns and labels:
Test in all cases: NCI tumour cell line growth inhibition, 48 h
KM20L2 colon = system: KM20L2 colon
XF 498 CNS = system: XF 498 CNS
HOP-62 NSCLC = system: HOP-62 NSCLC
U251 CNS = system: U251 CNS
SN12C renal = system: SN12C renal
MOLT-4 leukemia = system: MOLT-4 leukemia
NCI-H460 lung = system: NCI-H460 lung
RXF 393 renal = system: RXF 393 renal
EKVX NSCLC = system: EKVX NSCLC
M19-MEL melanoma = system: M19-MEL melanoma
SN12K1 renal = system: SN12K1 renal
SF-268 CNS = system: SF-268 CNS
SK-OV-3 ovarian = system: SK-OV-3 ovarian
HOP-18 NSCLC = system: HOP-18 NSCLC
SF-295 CNS = system: SF-295 CNS
HT29 colon = system: HT29 colon
LOX IMVI melanoma = system: LOX IMVI melanoma
DLD-1 colon = system: DLD-1 colon
HCC-2998 colon = system: HCC-2998 colon
MALME-3M melanoma = system: MALME-3M melanoma
SK-MEL-28 melanoma = system: SK-MEL-28 melanoma
SK-MEL-2 melanoma = system: SK-MEL-2 melanoma
HCT-15 colon = system: HCT-15 colon
NCI-H23 lung = system: NCI-H23 lung
K-562 leukemia = system: K-562 leukemia
RPMI-8226 leukemia = system: RPMI-8226 leukemia
IGROV1 ovarian = system: IGROV1 ovarian
NCI-H522 lung = system: NCI-H522 lung
DMS 273 small cell lung = system: DMS 273 small cell lung
SNB-75 CNS = system: SNB-75 CNS
MCF7 breast = system: MCF7 breast
KM12 colon = system: KM12 colon
SW-620 colon = system: SW-620 colon
NCI/ADR-RES ovarian = system: NCI/ADR-RES ovarian
DMS 114 small cell lung = system: DMS 114 small cell lung
SNB-19 CNS = system: SNB-19 CNS
P388/ADR leukemia = system: P388/ADR leukemia
A549 NSCLC = system: A549 NSCLC
A498 renal = system: A498 renal
SK-MEL-5 melanoma = system: SK-MEL-5 melanoma
COLO 205 colon = system: COLO 205 colon
CAKI-1 renal = system: CAKI-1 renal
UO-31 renal = system: UO-31 renal
SNB-78 CNS = system: SNB-78 CNS
P388 leukemia = system: P388 leukemia
OVCAR-3 ovarian = system: OVCAR-3 ovarian
NCI-H226 lung = system: NCI-H226 lung
UACC-257 melanoma = system: UACC-257 melanoma
SF-539 CNS = system: SF-539 CNS
OVCAR-4 ovarian = system: OVCAR-4 ovarian
OVCAR-8 ovarian = system: OVCAR-8 ovarian
CCRF-CEM leukemia = system: CCRF-CEM leukemia
OVCAR-5 ovarian = system: OVCAR-5 ovarian
HL-60(TB) leukemia = system: HL-60(TB) leukemia
UACC-62 melanoma = system: UACC-62 melanoma
HOP-92 NSCLC = system: HOP-92 NSCLC
HCT-116 colon = system: HCT-116 colon

With `CCOC(=O)CN(CC)C(=O)NC12CC3CC(CC(C3)C1)C2` the TGI (KM20L2 colon) was 471 µM, the TGI (XF 498 CNS) was 293 µM and the TGI (HOP-62 NSCLC) was 602 µM. For the same compound, the TGI (U251 CNS) was over 536 µM, the TGI (SN12C renal) was over 750 µM and the TGI (MOLT-4 leukemia) was 436 µM. For the same compound, the TGI (NCI-H460 lung) was 558 µM, the TGI (RXF 393 renal) was 509 µM and the TGI (EKVX NSCLC) was over 422 µM. It also gave a TGI (M19-MEL melanoma) of 472 µM, a TGI (SN12K1 renal) of 569 µM and a TGI (SF-268 CNS) of over 750 µM. The TGI (SK-OV-3 ovarian) was 513 µM, the TGI (HOP-18 NSCLC) was 609 µM and the TGI (SF-295 CNS) was over 615 µM. It also gave a TGI (HT29 colon) of 425 µM, a TGI (LOX IMVI melanoma) of 409 µM and a TGI (DLD-1 colon) of over 119 µM. It also gave a TGI (HCC-2998 colon) of 700 µM, a TGI (MALME-3M melanoma) of 378 µM and a TGI (SK-MEL-28 melanoma) of over 750 µM. For the same compound, the TGI (SK-MEL-2 melanoma) was 281 µM, the TGI (HCT-15 colon) was 646 µM and the TGI (NCI-H23 lung) was 560 µM. The TGI (K-562 leukemia) was 683 µM, the TGI (RPMI-8226 leukemia) was 454 µM and the TGI (IGROV1 ovarian) was over 750 µM. The TGI (NCI-H522 lung) was 493 µM, the TGI (DMS 273 small cell lung) was over 705 µM and the TGI (SNB-75 CNS) was 316 µM. The TGI (MCF7 breast) was 461 µM, the TGI (KM12 colon) was over 750 µM and the TGI (SW-620 colon) was over 750 µM. For the same compound, the TGI (NCI/ADR-RES ovarian) was over 680 µM, the TGI (DMS 114 small cell lung) was 363 µM and the TGI (SNB-19 CNS) was over 750 µM. It also gave a TGI (P388/ADR leukemia) of 640 µM, a TGI (A549 NSCLC) of over 750 µM and a TGI (A498 renal) of 413 µM. For the same compound, the TGI (SK-MEL-5 melanoma) was 211 µM, the TGI (COLO 205 colon) was 270 µM and the TGI (CAKI-1 renal) was 483 µM. It also gave a TGI (UO-31 renal) of 389 µM, a TGI (SNB-78 CNS) of 709 µM and a TGI (P388 leukemia) of 508 µM. It also gave a TGI (OVCAR-3 ovarian) of 512 µM, a TGI (NCI-H226 lung) of 480 µM and a TGI (UACC-257 melanoma) of 433 µM. For the same compound, the TGI (SF-539 CNS) was 659 µM, the TGI (OVCAR-4 ovarian) was 568 µM and the TGI (OVCAR-8 ovarian) was over 750 µM. For the same compound, the TGI (CCRF-CEM leukemia) was 631 µM, the TGI (OVCAR-5 ovarian) was 545 µM and the TGI (HL-60(TB) leukemia) was 348 µM. The TGI (UACC-62 melanoma) was 312 µM, the TGI (HOP-92 NSCLC) was 176 µM and the TGI (HCT-116 colon) was 522 µM.
